The compounds below were run against T1, human B1R (Homo sapiens, UniProt P46663) (assay: FLIPR Ca2+ influx assay, B1R antagonism, human (hB1R CHO K1 cells)). Conditions: test substance 10 μM; CHO K1 cells stably transfected with human B1R; agonist Lys-Des-Arg9-bradykinin at EC80; % inhibition compared with maximum achievable inhibition.
T1 construct: expressed in transfected cells; host or cells: CHO K1 cells (hB1R cells)
T1 sequence (P46663 1-353): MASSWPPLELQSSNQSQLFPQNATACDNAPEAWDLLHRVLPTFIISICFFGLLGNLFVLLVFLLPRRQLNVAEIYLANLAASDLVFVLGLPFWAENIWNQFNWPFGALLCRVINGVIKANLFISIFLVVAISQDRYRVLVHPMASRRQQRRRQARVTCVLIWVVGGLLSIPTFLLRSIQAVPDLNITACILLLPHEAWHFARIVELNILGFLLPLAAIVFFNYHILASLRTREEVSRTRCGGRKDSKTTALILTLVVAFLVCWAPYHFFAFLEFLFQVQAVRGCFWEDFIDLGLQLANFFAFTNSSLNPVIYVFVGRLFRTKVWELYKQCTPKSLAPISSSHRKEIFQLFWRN
Assay type: cell-based
Description: (§1) The agonistic or antagonistic action of substances can be quantified on the bradykinin receptor 1 (B1R) of the species human and rat using ectopically expressing cell lines (CHO K1 cells) and with the aid of a Ca^2+-sensitive dye (Fluo-4) using a fluorescent imaging plate reader (FLIPR). The indication in % activation is based on the Ca^2+ signal after addition of Lys-Des-Arg^9-bradykinin (0.5 nM) or Des-Arg^9-bradykinin (100 nM). Antagonists lead to suppression of the Ca^2+ influx after the addition of the agonist. % Inhibition compared with the maximum achievable inhibition is indicated.
(§2) The agonistic or antagonistic action of substances can be determined on the bradykinin receptor 1 (B1R) of the species human and rat using the following assay. According to this assay, the Ca^2+ influx through the channel is quantified with the aid of a Ca^2+-sensitive dye (Fluo-4 type, Molecular Probes Europe BV, Leiden, Netherlands) using a Fluorescent Imaging Plate Reader (FLIPR, Molecular Devices, Sunnyvale, USA).
(§3) Chinese hamster ovary cells (CHO K1 cells) which have been stably transfected with the human B1R gene (hB1R cells) or with the B1R gene of the rat (rB1R cells) are used. For functional studies, the cells are plated out on black 96-well plates having a clear base (BD Biosciences, Heidelberg, Germany or Greiner, Frickenhausen, Germany) in a density of 20,000-35,000 cells/well. The cells are incubated overnight at 37° C. and with 5% CO2 in culture medium (hB1R cells: Nutrient Mixture Ham's F12, Gibco Invitrogen GmbH, Karlsruhe, Germany or DMEM, Sigma-Aldrich, Taufkirchen, Germany; rB1R cells: D-MEM/F12, Gibco Invitrogen GmbH, Karlsruhe, Germany), with 10 vol. % FBS (fetal bovine serum, Gibco Invitrogen GmbH, Karlsruhe, Germany or PAN Biotech GmbH, Aidenbach, Germany).
(§4) On the following day, the cells are loaded for 60 minutes at 37° C. with 2.13 μM Fluo-4 (Molecular Probes Europe BV, Leiden, Netherlands) in HBSS buffer (Hank's buffered saline solution, Gibco Invitrogen GmbH, Karlsruhe, Germany) […] (Sigma-Aldrich, Taufkirchen, Germany) and 10 mM HEPES (Sigma-Aldrich, Taufkirchen, Germany). The plates are then washed twice with HBSS buffer, and HBSS buffer additionally containing 0.1% BSA (bovine serum albumin; Sigma-Aldrich, Taufkirchen, Germany), 5.6 mM glucose and 0.05% gelatin (Merck KGaA, Darmstadt, Germany) is added to the plates. After incubation for a further 20 minutes at room temperature, the plates are inserted into the FLIPR for Ca^2+ measurement.
(§5) Alternatively, washing is carried out with buffer A (15 mM HEPES, 80 mM NaCl, 5 mM KCl, 1.2 mM CaCl2, 0.7 mM MgSO4, 2 g/l glucose, 2.5 mM probenecid) followed by loading with buffer A with added 2.5 μM Fluo-4 and 0.025% Pluronic F127 (Sigma-Aldrich, Taufkirchen, Germany). The cells are then washed twice with buffer A and incubated for 30 minutes at room temperature with buffer A additionally containing 0.05% BSA and 0.05% gelatin and are then inserted into the FLIPR for Ca^2+ measurement.
(§6) The Ca^2+-dependent fluorescence is measured before and after the addition of substances (λex=488 nm, λem=540 nm). Quantification is carried out by measuring the highest fluorescence intensity (FC, fluorescence counts) over time.
(§7) The FLIPR protocol consists of two substance additions. Test substances (10 μM) are first pipetted onto the cells and the Ca^2+ influx is compared with the control (hB1R: Lys-Des-Arg^9-bradykinin >=50 nM; rB1R: Des-Arg^9-bradykinin 10 μM). This gives the activation in %, based on the Ca^2+ signal after addition of Lys-Des-Arg^9-bradykinin (>=50 nM) or Des-Arg^9-bradykinin (10 μM). After 10-20 minutes' incubation, Lys-Des-Arg^9-bradykinin (hB1R) or Des-Arg^9-bradykinin (rB1R) is applied in the concentration of the EC80, and the influx of Ca^2+ is likewise determined. Antagonists lead to suppression of the Ca^2+ influx. The % inhibition compared with the maximum achievable inhibition is calculated. […]

B1R antagonism, human [10 μM] % inhibition | SMILES
100% | COc1cc(C)c(S(=O)(=O)N2c3ccccc3CCC2COCC(=O)N2CCC(CCCN3CCCC3)(c3cccnc3)CC2)c(C)c1 (stereo not shown) [Example 54, 2-[[1-[(4-Methoxy-2,6-dimethyl-phenyl)sulfonyl]-1,2,3,4-tetrahydro-quinolin-2-yl]-methoxy]-1-[4-pyridin-3-yl-4-(3-pyrrolidin-1-yl-propyl)-piperidin-1-yl]-ethanone]

Same assay, conditions: test substance 10 μM; CHO K1 cells stably transfected with human B1R; agonist Lys-Des-Arg9-bradykinin at EC80; % inhibition compared with maximum achievable inhibition; read-out: B1R antagonism, human [10 μM] % inhibition

inhibition at 10 µM | SMILES
89% | CN(C)CCC1(c2cccnc2)CCN(C(=O)CC(NS(=O)(=O)c2ccc3ccccc3c2)c2ccccc2)CC1 (stereo not shown) [Example 7, N-(3-(4-(2-(Dimethylamino)ethyl)-4-(pyridin-3-yl)piperidin-1-yl)-3-oxo-1-phenylpropyl)naphthalene-2-sulfonamide]
100% | Cc1cccc(Cl)c1S(=O)(=O)N1c2ccccc2OCC1COCC(=O)N1CCC(CCCN2CCCC2)(c2cccnc2)CC1 (stereo not shown) [Example 72, 2-[[4-[(2-Chloro-6-methyl-phenyl)sulfonyl]-3,4-dihydro-2H-[1,4]benzoxazin-3-yl]-methoxy]-1-[4-pyridin-3-yl-4-(3-pyrrolidin-1-yl-propyl)-piperidin-1-yl]-ethanone]

What follows are compounds tested against T2, B1R of the rat (Rattus norvegicus, UniProt P97583) (assay: FLIPR Ca2+ influx assay, B1R antagonism, rat (rB1R CHO K1 cells)). Conditions: test substance 10 μM; CHO K1 cells stably transfected with rat B1R; agonist Des-Arg9-bradykinin at EC80; % inhibition compared with maximum achievable inhibition.
T2 construct: expressed in transfected cells; host or cells: CHO K1 cells (rB1R cells)
T2 sequence (P97583 1-337): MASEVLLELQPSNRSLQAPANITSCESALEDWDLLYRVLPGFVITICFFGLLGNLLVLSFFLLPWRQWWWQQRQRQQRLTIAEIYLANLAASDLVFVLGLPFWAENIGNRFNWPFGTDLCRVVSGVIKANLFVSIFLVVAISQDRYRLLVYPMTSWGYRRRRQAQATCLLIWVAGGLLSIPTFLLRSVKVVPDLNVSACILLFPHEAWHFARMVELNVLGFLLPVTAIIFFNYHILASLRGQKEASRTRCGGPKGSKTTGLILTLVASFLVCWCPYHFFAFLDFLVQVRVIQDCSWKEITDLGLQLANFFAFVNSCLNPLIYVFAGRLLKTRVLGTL
Assay type: cell-based
Description: as §1, §2, §3, §4, §5, §6, §7

B1R antagonism, rat [10 μM] % inhibition | SMILES
100% | O=C(COCC1CCCCN1S(=O)(=O)c1ccccc1C(F)(F)F)N1CCC(CCCN2CCCC2)(c2ccncc2)CC1 (stereo not shown) [Example 44, 1-[4-Pyridin-4-yl-4-(3-pyrrolidin-1-yl-propyl)-piperidin-1-yl]-2-[[1-[[2-(trifluoromethyl)-phenyl]sulfonyl]-piperidin-2-yl]-methoxy]-ethanone]
100% | COc1cc(C)c(S(=O)(=O)N2c3ccccc3OCC2COCC(=O)N2CCC(CCCN3CCCC3)(c3ccncc3)CC2)c(C)c1 (stereo not shown) [Example 70, 2-[[4-[(4-Methoxy-2,6-dimethyl-phenyl)sulfonyl]-3,4-dihydro-2H-[1,4]benzoxazin-3-yl]-methoxy]-1-[4-pyridin-4-yl-4-(3-pyrrolidin-1-yl-propyl)-piperidin-1-yl]-ethanone]
102% | COc1cc(C)c(S(=O)(=O)N2CCCCC2CCCC(=O)N2CCC(CCCN3CCCC3)(c3ccncc3)CC2)c(C)c1 (stereo not shown) [Example 63, 4-[1-[(4-Methoxy-2,6-dimethyl-phenyl)sulfonyl]-piperidin-2-yl]-1-[4-pyridin-4-yl-4-(3-pyrrolidin-1-yl-propyl)-piperidin-1-yl]-butan-1-one]

Same assay, conditions: test substance 10 μM; CHO K1 cells stably transfected with rat B1R; agonist Des-Arg9-bradykinin at EC80; % inhibition compared with maximum achievable inhibition; read-out: B1R antagonism, rat [10 μM] % inhibition

inhibition at 10 µM | SMILES
37% | CN(C)CCC1(c2cccnc2)CCN(C(=O)CC(NS(=O)(=O)c2ccc3ccccc3c2)c2ccccc2)CC1 (stereo not shown) [Example 7, N-(3-(4-(2-(Dimethylamino)ethyl)-4-(pyridin-3-yl)piperidin-1-yl)-3-oxo-1-phenylpropyl)naphthalene-2-sulfonamide]
103% | Cc1cccc(Cl)c1S(=O)(=O)N1c2ccccc2OCC1COCC(=O)N1CCC(CCCN2CCCC2)(c2cccnc2)CC1 (stereo not shown) [Example 72, 2-[[4-[(2-Chloro-6-methyl-phenyl)sulfonyl]-3,4-dihydro-2H-[1,4]benzoxazin-3-yl]-methoxy]-1-[4-pyridin-3-yl-4-(3-pyrrolidin-1-yl-propyl)-piperidin-1-yl]-ethanone]
68% | O=C(COCC1COc2ccccc2N1S(=O)(=O)c1ccccc1C(F)(F)F)N1CCC(CCCN2CCCC2)(c2ccncc2)CC1 (stereo not shown) [Example 75, 1-[4-Pyridin-4-yl-4-(3-pyrrolidin-1-yl-propyl)-piperidin-1-yl]-2-[[4-[[2-(trifluoromethyl)-phenyl]sulfonyl]-3,4-dihydro-2H-[1,4]benzoxazin-3-yl]-methoxy]-ethanone]
98% | COc1cc(C)c(S(=O)(=O)N2c3ccccc3CCC2COCC(=O)N2CCC(CCCN3CCCC3)(c3ccncc3)CC2)c(C)c1 (stereo not shown) [Example 55, 2-[[1-[(4-Methoxy-2,6-dimethyl-phenyl)sulfonyl]-1,2,3,4-tetrahydro-quinolin-2-yl]-methoxy]-1-[4-pyridin-4-yl-4-(3-pyrrolidin-1-yl-propyl)-piperidin-1-yl]-ethanone]
70% | O=C(CCCC1CCCCN1S(=O)(=O)c1ccccc1C(F)(F)F)N1CCC(CCCN2CCCC2)(c2cccnc2)CC1 (stereo not shown) [Example 57, 1-[4-Pyridin-3-yl-4-(3-pyrrolidin-1-yl-propyl)-piperidin-1-yl]-4-[1-[[2-(trifluoromethyl)-phenyl]sulfonyl]-piperidin-2-yl]-butan-1-one]
100% | COc1cc(C)c(S(=O)(=O)N(C)CCOCC(=O)N2CCC(CCCN3CCCC3)(c3ccncc3)CC2)c(C)c1C [Example 32, 4-Methoxy-N,2,3,6-tetramethyl-N-[2-[2-oxo-2-[4-pyridin-4-yl-4-(3-pyrrolidin-1-yl-propyl)-piperidin-1-yl]-ethoxy]-ethyl]-benzenesulfonic acid amide]
101% | O=C(COCC1CCCCN1S(=O)(=O)c1ccccc1C(F)(F)F)N1CCC(CCCN2CCCC2)(c2ccncc2)CC1 (stereo not shown) [Example 43, 1-[4-Pyridin-4-yl-4-(3-pyrrolidin-1-yl-propyl)-piperidin-1-yl]-2-[[1-[[2-(trifluoromethyl)-phenyl]sulfonyl]-piperidin-2-yl]-methoxy]-ethanone]
99% | COc1cc(C)c(S(=O)(=O)N(CCOCC(=O)N2CCC(CCCN3CCCC3)(c3ccncc3)CC2)Cc2ccccc2)c(C)c1 [Example 39, N-Benzyl-4-Methoxy-2,6-dimethyl-N-[2-[2-oxo-2-[4-pyridin-4-yl-4-(3-pyrrolidin-1-yl-propyl)-piperidin-1-yl]-ethoxy]-ethyl]-benzenesulfonic acid amide]
97% | COc1cc(C)c(S(=O)(=O)N2CCCCC2COCC(=O)N2CCC(CCCN3CCCC3)(c3ccncc3)CC2)c(C)c1 (stereo not shown) [Example 28, 2-[[1-[(4-Methoxy-2,6-dimethyl-phenyl)sulfonyl]-piperidin-2-yl]-methoxy]-1-[4-pyridin-4-yl-4-(3-pyrrolidin-1-yl-propyl)-piperidin-1-yl]-ethanone]
99% | O=C(CCCC1CCCCN1S(=O)(=O)c1ccccc1C(F)(F)F)N1CCC(CCCN2CCCC2)(c2ccncc2)CC1 (stereo not shown) [Example 58, 1-[4-Pyridin-4-yl-4-(3-pyrrolidin-1-yl-propyl)-piperidin-1-yl]-4-[1-[[2-(trifluoromethyl)-phenyl]sulfonyl]-piperidin-2-yl]-butan-1-one]

From US8124624B2, “Substituted sulfonamide compounds” (Gruenenthal GmbH, priority 2008, dated 2012)
